How the values were obtained:
[1] = test system: BT-549; details: BT-549, 10 μM
[2] = test system: DU-145; details: DU-145, 10 μM
[3] = test system: SF-268; details: SF-268, 10 μM
[4] = test system: RPMI-8226; details: RPMI-8226, 10 μM
[5] = test system: A549/ATCC; details: 10 μM
[6] = test system: PC-3; test: NCI SRB screening; assay type: cell-based, human; details: PC-3, 10 μM
[7] = test system: HCT-116; details: HCT-116, 10 μM
[8] = test system: K-562; details: K-562, 10 μM
[9] = test system: SR; details: 10 μM
[10] = test system: EKVX; details: 10 μM
[11] = test system: M14; test: NCI SRB screening; assay type: cell-based; details: M14, 10 μM
[12] = test system: HS 578T; details: 10 μM
[13] = test system: NCI/ADR-RES; details: 10 μM
[14] = test system: SK-MEL-2; details: SK-MEL-2, 10 μM
[15] = test system: SW-620; details: SW-620, 10 μM
[16] = test system: MDA-MB-435; test: NCI SRB screening; assay type: cell-based; details: MDA-MB-435, 10 μM
[17] = test system: SK-MEL-28; details: SK-MEL-28, 10 μM
[18] = test system: ACHN; details: 10 μM
[19] = test system: HOP-62; details: HOP-62, 10 μM
[20] = test system: OVCAR-8; details: OVCAR-8, 10 μM
[21] = test system: OVCAR-3; details: OVCAR-3, 10 μM
[22] = test system: LOX IMVI; test: NCI SRB screening; assay type: cell-based, human; details: 10 μM
[23] = test system: U251; details: U251, 10 μM
[24] = test system: MALME-3M; details: 10 μM
[25] = test system: OVCAR-5; details: OVCAR-5, 10 μM
[26] = test system: MDA-MB-468; details: MDA-MB-468, 10 μM
[27] = test system: COLO 205; test: NCI SRB screening; assay type: cell-based, human; details: COLO 205, 10 μM
[28] = test system: IGROV1; details: IGROV1, 10 μM
[29] = test system: SF-295; details: SF-295, 10 μM
[30] = test system: UACC-62; details: UACC-62, 10 μM
[31] = test system: HCC-2998; test: NCI SRB screening; assay type: cell-based, human; details: HCC-2998, 10 μM
[32] = test system: MOLT-4; details: MOLT-4, 10 μM
[33] = test system: NCI-H322M; test: NCI SRB screening; details: 10 μM
[34] = test system: NCI-H460; test: NCI SRB screening; assay type: cell-based, human; details: NCI-H460, 10 μM
[35] = test system: NCI-H23; details: NCI-H23, 10 μM
[36] = test system: RXF 393; details: RXF 393, 10 μM
[37] = test system: SNB-19; details: SNB-19, 10 μM
[38] = test system: SN12C; details: 10 μM
[39] = test system: MCF7; details: MCF7, 10 μM
[40] = test system: CCRF-CEM; details: 10 μM
[41] = test system: TK-10; details: TK-10, 10 μM
[42] = test system: NCI-H522; details: NCI-H522, 10 μM
[43] = test system: SK-OV-3; details: SK-OV-3, 10 μM
[44] = test system: OVCAR-4; details: OVCAR-4, 10 μM
[45] = test system: 786-0; details: 786-0, 10 μM
[46] = test system: SNB-75; details: SNB-75, 10 μM
[47] = test system: HL-60(TB); details: HL-60(TB), 10 μM
[48] = test system: NCI-H226; details: NCI-H226, 10 μM

Measured: GI %

CCCn1cc(/C=N/N=C2\C(=O)Nc3ccc(OC(F)(F)F)cc32)c2ccccc21 [Compound 8b]
50%: [32]
40%: [10]
21%: [7] | [19]
33%: [8]
28%: [5]
13%: [2]
19%: [42]
32%: [6]
29%: [39]
13.32%: [23]
11%: [26] | [30] | [34]
30%: [4]
12%: [35] | [47]
15%: [13] | [18] | [20]
52%: [40]
– (Only GI % higher than 10% are shown): all other assays above

CCCn1cc(C=NN=C2C(=O)Nc3ccc([N+](=O)[O-])cc32)c2ccccc21 [Compound 8c]
28%: [23]
15%: [39]
10%: [47]
17%: [26]
29%: [20]
19%: [9] | [34]
20%: [7]
13%: [5]
22%: [37]
18%: [8]
– (Only GI % higher than 10% are shown): all other assays above

Reference: PMC7717600, “Novel [(N-alkyl-3-indolylmethylene)hydrazono]oxindoles arrest cell cycle and induce cell apoptosis by inhibiting CDK2 and Bcl-2: synthesis, biological evaluation and in silico studies” (Journal of Enzyme Inhibition and Medicinal Chemistry, 2020)
